test system: cold receptors; assay: Cooling effect of consumer product applied to skin (face, scalp, lips, forehead); type: in vivo, human; settings: Example 3, toilet water, 3.0%, skin
Experimental: Into two separate samples of the base lotion were added 2.0% by weight based on the total composition of N-ethyl-p-menthane-3-carboxamide and N,N-dimethyl-p-menthane-3-carboxamide, each into a different one of the two samples.
To the recipe was added 3.0%, based on the total composition of N-p-menth-3-oylglycine methyl ester. […]
Sodium lauryl ether sulphate, 10 g., was dispersed in 90 g. water in a high speed mill. To the dispersion was added 3.3% by weight of N-(2-hydroxy-n-propyl)-p-menthane-3-carboxamide. […]
The sodium stearate was dissolved by stirring in a warm mixture of the ethanol propylene glycol and water. To the solution was added the perfume and 3.0% of N-(2-hydroxy-n-propyl)-p-menthane-3-carboxamide and the mixture then allowed to solidify into a waxy cake. […]
This Example illustrates now the physiological cooling effect of the compounds of this invention varies according to the locality of application.
In the course of grinding there was added 3.0% of N-n-propyl-p-menthane-3-carboxamide. […]
To this liquid was added 1.0% of N-ethyl-p-menthane-3-carboxamide. A paper tissue was then soaked in the liquid.

| SMILES | cooling effect |
| --- | --- |
| COC(=O)CNC(=O)C1CC(C)CCC1C(C)C (stereo not drawn) [H, --CH2 COOCH3, N-(p-menth-3-oyl)glycine methyl ester] | a cooling effect was clearly noticeable on the skin well after the termination of any cooling effect attributable to the evaporation of the alcoholic carrier |

same assay, conditions: Example 6, lipstick, 0.6%, lips

| SMILES | cooling effect |
| --- | --- |
| CC1CCC(C(C)C)C(C(=O)NCC(=O)O)C1 (stereo not drawn) [H, --CH2 COOH, N-(p-menth-3-oyl) glycine] | a persistent cooling effect is clearly noiticeable |

same assay, conditions: Example 8, hair tonic, 2.0%, scalp

| SMILES | cooling effect |
| --- | --- |
| COC(=O)CNC(=O)C1CC(C)CCC1C(C)C (stereo not drawn) [H, --CH2 COOCH3, N-(p-menth-3-oyl)glycine methyl ester] | a cooling effect is noticed |

same assay, conditions: Example 21, antiseptic ointment, 0.5%, skin

| SMILES | cooling effect |
| --- | --- |
| COC(=O)CNC(=O)C1CC(C)CCC1C(C)C (stereo not drawn) [H, --CH2 COOCH3, N-(p-menth-3-oyl)glycine methyl ester] | marked cooling effect |

same assay, conditions: Example 22, antipruritic ointment, 0.1%, skin

| SMILES | cooling effect |
| --- | --- |
| CCCOC(=O)CNC(=O)C1CC(C)CCC1C(C)C (stereo not drawn) [H, --CH2 COOC3 H7 (n), N-(p-menth-3-oyl)glycine n-propyl ester] | soothing effect on the skin accompanied by a noticeable cooling effect |

same assay, conditions: Example 24 repeated, cleansing tissue, 2.0%, skin, in place of the N-ethyl compound

| SMILES | cooling effect |
| --- | --- |
| CC1CCC(C(C)C)C(C(=O)NCCCO)C1 (stereo not drawn) [H, --(CH2)3 OH, N-3-hydroxypropyl-p-menthane carboxamide] | equally effective results |

test system: cold receptors; assay: Threshold test: minimum quantity of compound on filter paper square on tongue giving a noticeable cooling effect, selected panel of 6 people; type: in vivo, human; settings: panel of 6 people, cooling reported 50% of the time
Description: For example, a controlling factor in the onset of cooling effect, its intensity and longevity will be the rate of penetration of the compounds through the epidermis and this will vary in different locations on the human body.
It will also benoted that the described test procedure is done on a statistical basis. This is necessary since sensitivity to these compounds will vary not only from compound to compound and from one part of the body to another, but also from one individual to another. Tests of this nature are commonly used in the testing of the organoleptic properties, e.g. taste, smell etc. of organic and inorganic compounds, see Kirk-Othmer: Encyclopedia of Chemical Technology, 2nd. Ed.
The following test procedure is aimed at determining the minimum quantity of the test compound required to produce a noticeable cooling effect on a person of average sensitivity, this minimum quantity being termed the threshold for that particular compound. The tests are carried out on a selected panel of 6 people of median sensitivity to 1-menthol.
To select a test panel of average sensitivity the following procedure is used. Known quantities of 1-menthol in solution in petroleum ether (bp.40-60) are placed on 5 mm. squares of filter paper, whereafter the solvent is allowed to evaporate. A panel of observers is enrolled and asked to place one impregnated square at a time on the tongue and to report on the presence or absence of a cooling effect. […] Conveniently, one starts with squares containing 2.0 μg. 1-menthol, the amount on each successive square being half that of the preceding square, i.e. the second test square will contain 1.0 μg, the third 0.5 μg and so on. Each quantity is tested on the tongue at least 10 times. In this way, the thresholds to cold receptor stimulus by 1-menthol are determined for each individual of the panel, the threshold for each individual being that amount of 1-menthol for which, in a series of not less than 10 test applications, a cooling effect is reported 50% of the time.
To test the activity of compounds according to this invention, the above procedure is repeated using only the 6 selected panel members of average sensitivity to 1-menthol. The individual thresholds for each test compound on each of the 6 selected panel members are determined and averaged. Those compounds whose average threshold on the select test panel is 100 μg or less are regarded as having cooling activity in accordance with this invention.

| SMILES | Threshold (average minimum quantity to produce a noticeable cooling effect) [µg] |
| --- | --- |
| CC1CCC(C(C)C)C(C(=O)N2CCCC2)C1 (stereo not drawn) [--(CH2 H4 --] | 5 |
| CC1CCC(C(C)C)C(C(=O)N2CCCCC2)C1 (stereo not drawn) [--(CH2)5 --] | 6 |
| CCN(CC)C(=O)C1CC(C)CCC1C(C)C (stereo not drawn) [--C2 H5, --C2 H5] | 3 |
| CCN(CC(C)C)C(=O)C1CC(C)CCC1C(C)C (stereo not drawn) [--C2 H5, --C4 H9 (iso)] | 5 |
| CC1CCC(C(C)C)C(C(=O)N(CCO)C(C)C)C1 (stereo not drawn) [--C3 H7 (iso), --CH2 CH2 OH] | 3 |
| CC1CCC(C(C)C)C(C(=O)N2CCNCC2)C1 (stereo not drawn) [--CH2 CH2 NHCH2 CH2 --] | 15 |
| CC1CCC(C(C)C)C(C(=O)N(C)CCO)C1 (stereo not drawn) [--CH3, --CH2 CH2 OH] | 5 |
| CCOC(=O)CN(C)C(=O)C1CC(C)CCC1C(C)C (stereo not drawn) [--CH3, --CH2 CO2 C2 H5] | 0.8 |
| CC1CCC(C(C)C)C(C(=O)N2C(C)CCC2C)C1 (stereo not drawn) [--CH(CH3)CH2 CH2 CH(CH3)--] | 0.5 |
| CC1CCC(C(C)C)N(C(=O)C2CC(C)CCC2C(C)C)CC1 (stereo not drawn) [--CH(iso-C3 H7)CH2 CH2 CH(CH3)CH2 CH2 --] | 50 |
| CC1CCC(C(C)C)C(C(=O)Nc2cccnc2)C1 (stereo not drawn) [H, --3-Pyridyl] | 0.5 |
| CC1CCC(C(C)C)C(C(=O)NCCCO)C1 (stereo not drawn) [H, --(CH2)3 OH, N-3-hydroxypropyl-p-menthane carboxamide] | 3 |
| CC1CCC(C(C)C)C(C(=O)NCCCCCCO)C1 (stereo not drawn) [H, --(CH2)6 OH] | 1.0 |
| CC1CCC(C(C)C)C(C(=O)NC2CC2)C1 (stereo not drawn) [H, --C3 H5 (cyclo)] | 0.5 |
| CC1CCC(C(C)C)C(C(=O)NC(C)C)C1 (stereo not drawn) [H, --C3 H7 (iso)] | 0.5 |
| CC(C)CNC(=O)C1CC(C)CCC1C(C)C (stereo not drawn) [H, --C4 H9 (iso)] | 0.9 |
| CCCCNC(=O)C1CC(C)CCC1C(C)C (stereo not drawn) [H, --C4 H9 (n)] | 1.4 |
| CCC(C)NC(=O)C1CC(C)CCC1C(C)C (stereo not drawn) [H, --C4 H9 (sec)] | 0.7 |
| CC1CCC(C(C)C)C(C(=O)NC(C)(C)C)C1 (stereo not drawn) [H, --C4 H9 (tert.)] | 0.4 |
| CC1CCC(C(C)C)C(C(=O)NC2CCCC2)C1 (stereo not drawn) [H, --C5 H9 (cyclo)] | 0.5 |
| CCCCCNC(=O)C1CC(C)CCC1C(C)C (stereo not drawn) [H, --C5 H11 (n)] | 3 |
| Cc1ccc(NC(=O)C2CC(C)CCC2C(C)C)cc1C (stereo not drawn) [H, --C6 H3 Me2 (m,p)] | 0.1 |
| Cc1ccc(NC(=O)C2CC(C)CCC2C(C)C)cc1O (stereo not drawn) [H, --C6 H3 Me(p)OH(m)] | 0.1 |
| CC1CCC(C(C)C)C(C(=O)Nc2ccc(F)cc2)C1 (stereo not drawn) [H, --C6 H4 F(p)] | 0.5 |

| SMILES | Threshold (average minimum quantity to produce a noticeable cooling effect) [µg] |
| --- | --- |
| Cc1ccc(NC(=O)C2CC(C)CCC2C(C)C)cc1 (stereo not drawn) [H, --C6 H4 Me(p)] | 0.3 |
| CC1CCC(C(C)C)C(C(=O)Nc2ccc([N+](=O)[O-])cc2)C1 (stereo not drawn) [H, --C6 H4 NO2 (p)] | 0.3 |
| CC1CCC(C(C)C)C(C(=O)Nc2ccccc2O)C1 (stereo not drawn) [H, --C6 H4 OH(o)] | 0.5 |
| CC1CCC(C(C)C)C(C(=O)Nc2ccc(O)cc2)C1 (stereo not drawn) [H, --C6 H4 OH(p)] | 1.4 |
| COc1ccc(NC(=O)C2CC(C)CCC2C(C)C)cc1 (stereo not drawn) [H, --C6 H4 OMe(p)] | 0.1 |
| CC1CCC(C(C)C)C(C(=O)NC2CCCCC2)C1 (stereo not drawn) [H, --C6 H11 (cyclo)] | 1 |
| CC1CCC(C(C)C)C(C(=O)NC2CCCCCC2)C1 (stereo not drawn) [H, --C7 H13 (cyclo)] | 3 |
| CCCCCCCCCCNC(=O)C1CC(C)CCC1C(C)C (stereo not drawn) [H, --C10 H21 (n)] | 10 |
| CC1CCC(C(C)C)C(C(=O)NCC2CCCCCC2)C1 (stereo not drawn) [H, --CH2 (C7 H13 (cyclo)] | 20 |
| CCOC(=O)CCNC(=O)C1CC(C)CCC1C(C)C (stereo not drawn) [H, --CH2 CH2 COOC2 H5] | 1.5 |
| CC1CCC(C(C)C)C(C(=O)NCCN)C1 (stereo not drawn) [H, --CH2 CH2 NH2] | 20 |
| CC(=O)OCCNC(=O)C1CC(C)CCC1C(C)C (stereo not drawn) [H, --CH2 CH2 OCOCH3] | 1.5 |
| CCOC(=O)CNC(=O)C1CC(C)CCC1C(C)C (stereo not drawn) [H, --CH2 COOC2 H5] | 0.2 |
| CCCOC(=O)CNC(=O)C1CC(C)CCC1C(C)C (stereo not drawn) [H, --CH2 COOC3 H7 (n), N-(p-menth-3-oyl)glycine n-propyl ester] | 0.3 |
| COC(=O)CNC(=O)C1CC(C)CCC1C(C)C (stereo not drawn) [H, --CH2 COOCH3, N-(p-menth-3-oyl)glycine methyl ester] | 0.6 |
| CC1CCC(C(C)C)C(C(=O)NCC(=O)O)C1 (stereo not drawn) [H, --CH2 COOH, N-(p-menth-3-oyl) glycine] | 16 |
| CC1CCC(C(C)C)C(C(=O)NCC#CCO)C1 (stereo not drawn) [H, --CH2 C≡CCH2 OH] | 17 |
| CC1CCC(C(C)C)C(C(=O)NCO)C1 (stereo not drawn) [H, --CH2 OH] | 12 |
| CC1CCC(C(C)C)C(C(=O)NCc2ccccc2)C1 (stereo not drawn) [H, --CH2 Ph] | 10 |
| CCC(CO)NC(=O)C1CC(C)CCC1C(C)C (stereo not drawn) [H, --CH(C2 H5)CH2 OH] | 1.0 |
| CCOC(=O)CC(C)NC(=O)C1CC(C)CCC1C(C)C (stereo not drawn) [H, --CH(CH3)CH2 COOC2 H5] | 0.8 |
| CCOC(=O)C(C)NC(=O)C1CC(C)CCC1C(C)C (stereo not drawn) [H, --CH(CH3)COOC2 H5] | 0.4 |
| CC1CCC(C(C)C)C(C(=O)NO)C1 (stereo not drawn) [H, --OH] | 11 |

same assay, conditions: panel selection criterion, six members

| SMILES | average threshold to 1-menthol of selected panel |
| --- | --- |
| CC1CCC(C(C)C)C(O)C1 (stereo not drawn) [1-menthol, reference compound] | approximately 0.25 μg |
